Experimental data taken from patent publication US10611760B2, “Therapeutic compounds as inhibitors of the orexin-1 receptor” (C4X Discovery Limited, priority 2014, dated 2020).

Experiments:
Format in all cases: cell-based
orexin-1 = biological target: T1, orexin-1 (Homo sapiens, UniProt O43613); assay: Antagonism against orexin-1 in the aforementioned (above identified) intracellular calcium assays
T1 construct: expressed in transfected cells
T1 sequence (O43613 1-425): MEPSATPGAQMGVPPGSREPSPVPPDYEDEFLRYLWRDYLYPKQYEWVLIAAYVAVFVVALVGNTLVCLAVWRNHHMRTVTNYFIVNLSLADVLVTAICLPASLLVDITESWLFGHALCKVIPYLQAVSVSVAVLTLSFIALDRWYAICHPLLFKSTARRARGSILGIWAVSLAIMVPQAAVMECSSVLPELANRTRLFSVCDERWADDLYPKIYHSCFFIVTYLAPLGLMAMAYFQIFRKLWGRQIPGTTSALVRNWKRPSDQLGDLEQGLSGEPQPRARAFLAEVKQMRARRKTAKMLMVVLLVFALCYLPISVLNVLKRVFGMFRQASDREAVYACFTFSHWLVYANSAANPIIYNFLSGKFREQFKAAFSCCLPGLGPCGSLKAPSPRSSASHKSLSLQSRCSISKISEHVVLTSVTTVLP
Source text: Antagonism against orexin receptors has been measured for each example compound using at least one of the following procedures. […] These values may fluctuate depending on the daily cellular assay performance. Fluctuations of this kind are known to those skilled in the art. […] Data highlighted with an asterix (*) is derived from a single experiment, otherwise all data reported is an average of at least two independant replicate experiments. […]

hOX1R [1] = biological target: T2, hOX1R (Homo sapiens, UniProt O43613); assay: Intracellular calcium measurements using division-arrested cells, OX1; conditions: agonist orexin A at 2×EC50, * = single experiment, otherwise average of at least two, read-out: pIC50 OX1 (converted)
T2 sequence (O43613 1-425): T1 sequence (O43613 1-425)
Procedure, shortened: (§1)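 Division-arrested cells expressing human OX1 or OX2 were seeded for 16 h, then loaded with Calcium 5 dye plus probenecid for 1 h at 37 °C. Compounds in HEPES-buffered HBSS with 0.1% BSA, pH 7.4, top final concentration 10 μM, were added 10 min before the FlexStation calcium read.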

hOX2R [2] = biological target: T3, hOX2R (Homo sapiens, UniProt O43614); assay: Intracellular calcium measurements using division-arrested cells, OX2; conditions: agonist orexin B at 2×EC50, * = single experiment, otherwise average of at least two, read-out: pIC50 OX2 (converted)
T3 sequence (O43614 1-444): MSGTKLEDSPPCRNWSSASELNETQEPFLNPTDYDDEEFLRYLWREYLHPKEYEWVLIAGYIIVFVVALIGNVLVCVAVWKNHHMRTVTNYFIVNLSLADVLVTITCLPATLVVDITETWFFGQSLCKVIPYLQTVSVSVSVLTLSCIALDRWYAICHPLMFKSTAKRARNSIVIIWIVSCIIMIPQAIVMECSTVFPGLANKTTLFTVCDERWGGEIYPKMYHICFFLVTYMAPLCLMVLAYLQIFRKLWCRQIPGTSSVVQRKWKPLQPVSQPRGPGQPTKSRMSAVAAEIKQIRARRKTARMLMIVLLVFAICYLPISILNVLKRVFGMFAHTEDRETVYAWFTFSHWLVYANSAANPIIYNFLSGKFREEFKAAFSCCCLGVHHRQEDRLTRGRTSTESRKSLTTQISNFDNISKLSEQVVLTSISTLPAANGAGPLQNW
Procedure, shortened: as §1

hOX1R [3] = biological target: T2, hOX1R; assay: Intracellular calcium measurements using stable-replicating cells, Method A, OX1; conditions: orexin-A at 4×EC50, * = single experiment, read-out: pIC50 OX1 (converted)
Protocol: (§2) Intracellular Calcium Measurements Using Stable-replicating Cells:
(§3) Method A (Table 2): Test compounds are prepared as 10 mM stock solutions in DMSO, warmed briefly for 20 seconds at 37° C. and serially diluted in half log concentrations with DMSO followed by dilution with assay buffer (HBSS (Sigma-Aldrich, H8264) containing 10 mM HEPES (Invitrogen, 15630080) and pH adjusted to 7.4) to a top final assay concentration of 10 μM.
(§4) Human OX1 (CT-A674) and human OX2 (CT-A675) receptor-expressing stable-replicating cells are grown in a culture medium, Ham F12 (Invitrogen, 31765-035) containing 10% fetal bovine serum (Invitrogen, 16000044), 1% non-essential amino acids (Invitrogen, 11140-050), 100 U/mL Penicillin/Streptomycin (Invitrogen, 15140-122) and G418 (Invitrogen, 11811023) at a concentration of 400 μg/mL. The cells are seeded at a density of 7,000 cells/well into black, clear bottom 384-well plates (Corning, 3683) and incubated at 37° C. in air supplemented with 5% CO2 for 16 hrs.
(§5) Loading dye (25 μL/well), prepared from a FLIPR Calcium 6 Assay kit (Molecular Devices, R8190-Explorer) according to the manufacturer's instructions, and the serially diluted test compounds (10 μL/well) are added to the plate. The plate is then incubated for 30 mins at 37° C. in 5% CO2, then for 30 mins at ambient temperature and placed into a FlexStation III reader.

hOX2R [4] = biological target: T3, hOX2R; assay: Intracellular calcium measurements using stable-replicating cells, Method A, OX2; conditions: orexin-A at 4×EC50, * = single experiment, read-out: pIC50 OX2 (converted)
Protocol: as §2, §3, §4, §5

hOX1R [5] = biological target: T2, hOX1R; assay: Intracellular calcium measurements using stable-replicating cells, Method B (CHO cells, FLIPR Tetra), OX1; conditions: orexin A at EC75, read-out: pIC50 OX1 (converted)
Protocol: as §2
(§6) Human OX1 or human OX2 receptor expressing CHO cells are plated into 384 well black, clear bottom, CellBIND plates at a seeding density of 10,000 cells/75 μL growth media. The seeded plates are incubated at 37° C. in air supplemented with 5% CO2 overnight.
(§7) The next day media is removed and replaced with 30 μL/well of cell loading buffer (a vial of Calcium 5 is solubilized in 20 mL of assay buffer) and the cells incubated for 1 hr at 37° C. The serially diluted test compounds (10 μL/well) are added to the cell plate by the FLIPR Tetra and the addition is monitored for 5 mins by the instrument. The cell plate is then removed and incubated for additional 25 mins in a humidified incubator at […] prior to being placed back into the FLIPR Tetra. Finally 10 μL of orexin A in assay buffer +0.1% (w/v) bovine serum albumin is dispensed by the FLIPR Tetra at an EC75 concentration determined for each assay run. Fluorescence is measured at excitation and emission wavelengths of 485 nm and 525 nm respectively and data analyzed using GraphPad Prism for the EC75 value of orexin A and Aplus to determine an IC50 value for each test compound.

hOX2R [6] = biological target: T3, hOX2R; assay: Intracellular calcium measurements using stable-replicating cells, Method B (CHO cells, FLIPR Tetra), OX2; conditions: orexin A at EC75, read-out: pIC50 OX2 (converted)
Protocol: as §2, §6, §7

SMILES	IC50 (orexin-1) [µM]	IC50 (hOX1R [1]) [µM]	IC50 (hOX2R [2]) [µM]	IC50 (hOX1R [3]) [µM]	IC50 (hOX2R [4]) [µM]	IC50 (hOX1R [5]) [µM]	IC50 (hOX2R [6]) [µM]
CC[C@@H](CNc1ccc2nccn2c1)N(C)C(=O)c1cc(Cl)ccc1-n1nccn1 [(S)-5-chloro-N-(1-(imidazo[1,2-a]pyridin-6-ylamino)butan-2-yl)-N-methyl-2-(2H-1,2,3-triazol-2-yl)benzamide]	> 10						
Cc1nc(-c2ccccc2)c(C(=O)N[C@H](CNc2ccc(Cl)cn2)C(C)C)s1 [Example 6, (S)—N-(1-((5-chloropyridin-2-yl)amino)-3-methylbutan-2-yl)-2-methyl-4-phenylthiazole-5-carboxamide]		0.501	> 10	3.16	> 10		
Cc1nc(-c2ccccc2)c(C(=O)N(C)[C@H](CNc2ccc(Cl)cn2)CC(C)C)s1 [Example 9, (S)—N-(1-((5-chloropyridin-2-yl)amino)-4-methylpentan-2-yl)-N,2-dimethyl-4-phenylthiazole-5-carboxamide]		0.251	> 10	2	> 10		
CC[C@@H](CNc1nc2ccccc2o1)N(C)C(=O)c1cc(Cl)ccc1-n1nccn1 [Example 43, (S)—N-(1-(benzo[d]oxazol-2-ylamino)butan-2-yl)-5-chloro-N-methyl-2-(2H-1,2,3-triazol-2-yl)benzamide]				0.01	1	0.000794	0.794
CC[C@@H](CNc1ccc2ccccc2n1)N(C)C(=O)c1nc(C)ccc1-n1nccn1 [Example 75, (S)—N,6-dimethyl-N-(1-(quinolin-2-ylamino)butan-2-yl)-3-(2H-1,2,3-triazol-2-yl)picolinamide]				0.00631	2	0.00126	2.51
CC[C@@H](CNc1ncc(C(F)(F)F)cn1)N(C)C(=O)c1cccc2cccnc12 [Example 79, (S)—N-methyl-N-(1-((5-(trifluoromethyl)pyrimidin-2-yl)amino)butan-2-yl)quinoline-8-carboxamide]				0.1	1.58	0.0794	2.51
CC[C@@H](CNc1ncc(C(F)(F)F)cn1)N(C)C(=O)c1nccc2ccccc12 [Example 85, (S)—N-methyl-N-(1-((5-(trifluoromethyl)pyrimidin-2-yl)amino)butan-2-yl)isoquinoline-1-carboxamide]				0.0501	3.16	0.1	
Cc1ccc(-n2nccn2)c(C(=O)N(C)[C@H](CNc2ncc(C(F)(F)F)cn2)CC(F)(F)F)n1 [Example 88, (S)—N,6-dimethyl-3-(2H-1,2,3-triazol-2-yl)-N-(4,4,4-trifluoro-1-((5-(trifluoromethyl)pyrimidin-2-yl)amino)butan-2-yl)picolinamide]				0.0398	> 10	0.01	

Continued, values first:

IC50 (orexin-1) [µM]	IC50 (hOX1R [1]) [µM]	IC50 (hOX2R [2]) [µM]	IC50 (hOX1R [3]) [µM]	IC50 (hOX2R [4]) [µM]	IC50 (hOX1R [5]) [µM]	IC50 (hOX2R [6]) [µM]	SMILES
	0.02		0.0316	> 10	0.00316	> 10	CC[C@@H](CNc1ncc(C(F)(F)F)cn1)N(C)C(=O)c1nc(C)ccc1-n1nccn1 [Example 46, (S)—N,6-dimethyl-3-(2H-1,2,3-triazol-2-yl)-N-(1-((5-(trifluoromethyl)pyrimidin-2-yl)amino)butan-2-yl)picolinamide]
	0.0316		0.00398	> 7.94	0.00251	> 3.98	CC[C@@H](CNc1cnc(C(F)(F)F)cn1)N(C)C(=O)c1nc(C)ccc1-n1nccn1 [Example 47, (S)—N,6-dimethyl-3-(2H-1,2,3-triazol-2-yl)-N-(1-((5-(trifluoromethyl)pyrazin-2-yl)amino)butan-2-yl)picolinamide]
			0.00398	1.58	0.00251	3.16	CC[C@@H](CNc1ncc2ccccc2n1)N(C)C(=O)c1nc(C)ccc1-n1nccn1 [Example 61, (S)—N,6-dimethyl-N-(1-(quinazolin-2-ylamino)butan-2-yl)-3-(2H-1,2,3-triazol-2-yl)picolinamide]
			0.00158	1.26	0.00158	0.501	CC[C@@H](CNc1nc2ccccc2s1)N(C)C(=O)c1nc(C)ccc1-n1nccn1 [Example 63, (S)—N-(1-(benzo[d]thiazol-2-ylamino)butan-2-yl)-N,6-dimethyl-3-(2H-1,2,3-triazol-2-yl)picolinamide]
			0.00794	1.26	0.000794	0.501	CC[C@@H](CNc1ccc2ccccc2n1)N(C)C(=O)c1cc(Cl)ccc1-n1nccn1 [Example 77, (S)-5-chloro-N-methyl-N-(1-(quinolin-2-ylamino)butan-2-yl)-2-(2H-1,2,3-triazol-2-yl)benzamide]
			0.0251	1	0.0158		CC[C@@H](CNc1ncc(C(F)(F)F)cn1)N(C)C(=O)c1nc(C)cc2ccccc12 [Example 78, (S)—N,3-dimethyl-N-(1-((5-(trifluoromethyl)pyrimidin-2-yl)amino)butan-2-yl)isoquinoline-1-carboxamide]
			0.0251	0.2	0.01	0.316	CC[C@@H](CNc1ncc(C(F)(F)F)cn1)N(C)C(=O)c1cc(Cl)cc2cccnc12 [Example 80, (S)-6-chloro-N-methyl-N-(1-((5-(trifluoromethyl)pyrimidin-2-yl)amino)butan-2-yl)quinoline-8-carboxamide]
			0.0398	0.251	0.00501	0.251	CC[C@@H](CNc1ncc(C(F)(F)F)cn1)N(C)C(=O)c1nc(N(C)C)cc2ccccc12 [Example 81, (S)-3-(dimethylamino)-N-methyl-N-(1-((5-(trifluoromethyl)pyrimidin-2-yl)amino)butan-2-yl)isoquinoline-1-carboxamide]
